Read-outs that look alike come from different tables or passages of the source.
What was measured:
[1] = test system: Magnaporthe grisea (Pyricularia oryzae—PYRIOR); assay: microbe, parasite or virus in culture; assay type: cell-based; conditions: Pyricularia oryzae, read-out: PYRIOR in vitro Growth Inhibition
[2] = test system: Phytophthora infestans—PHYTIN; assay: whole plant or invertebrate; assay type: in vivo; conditions: Phytophthora, in Solanum lycopersicum, 24 h, read-out: PHYTIN in vivo 1 Day Protectant
[3] = test system: Phytophthora infestans (PHYTIN); assay: microbe, parasite or virus in culture; assay type: cell-based; conditions: Phytophthora infestans, read-out: PHYTIN in vitro Growth Inhibition
[4] = test system: Puccinia recondita—PUCCRT; assay: Brown Rust of Wheat, in vivo whole plant, 24 Hour Protectant; conditions: for pest or weed control at 100 ppm: Puccinia, control of fungal infection vs untreated plants, read-out: PUCCRT in vivo 1 Day Protectant
Erysiphe graminis—ERYSGT = assay: Powdery Mildew of Wheat, in vivo whole plant, 24 Hour Protectant; conditions: for pest or weed control at 100 ppm: Erysiphe, control of fungal infection vs untreated plants, read-out: ERYSGT in vivo 1 Day Protectant
[5] = test system: Leptosphaeria nodorum—LEPTNO; assay: Glume Blotch of Wheat, in vivo whole plant, 24 Hour Protectant; conditions: for pest or weed control at 100 ppm: Leptosphaeria, read-out: LEPTNO in vivo 1 Day Protectant
[6] = test system: Mycosphaerella graminicola (Septoria tritici—SEPTTR); assay: In vitro fungal growth inhibition, Mycosphaerella graminicola (SEPTTR); assay type: cell-based; conditions: Zymoseptoria tritici, read-out: SEPTTR in vitro Growth Inhibition
[7] = test system: Stagonospora nodorum (Leptosphaeria nodorum—LEPTNO); assay: In vitro fungal growth inhibition, Stagonospora nodorum (LEPTNO); assay type: cell-based; conditions: Leptosphaeria, read-out: LEPTNO in vitro Growth Inhibition
Septoria tritici—SEPTTR = assay: Leaf Blotch of Wheat, in vivo whole plant, 24 Hour Protectant; conditions: for pest or weed control at 100 ppm: Zymoseptoria tritici, 24 h, control of fungal infection vs untreated plants, read-out: SEPTTR in vivo 1 Day Protectant
[8] = test system: Rhizoctonia solani (RHIZSO); assay: microbe, parasite or virus in culture; assay type: cell-based; conditions: Rhizoctonia solani, read-out: RHIZSO in vitro Growth Inhibition
Ustilago maydis (USTIMA) = assay: microbe, parasite or virus in culture; assay type: cell-based; conditions: Mycosarcoma maydis, read-out: USTIMA in vitro Growth Inhibition
[9] = 100 ppm spray, wheat, 24 hour protectant
[10] = 100 ppm spray, 24 hour protectant, wheat
[11] = 100 ppm spray, 24 hour protectant, wheat, control of fungal infection vs untreated plants
[12] = wheat plants sprayed at 100 ppm, inoculated after 24 hours
[13] = wheat plants sprayed at 100 ppm, inoculated after 24 hours, control of fungal infection vs untreated plants
[14] = 100 ppm spray, wheat, 24 hour protectant, % control of fungal infection vs untreated plants

Question: Which inhibition at 25 ppm [1] does the source give for `COc1ccnc(C(=O)N[C@H]2COC(=O)[C@H](Cc3ccccc3)[C@@H](OC(C)=O)[C@H](C)OC2=O)c1O` [Compound 385] here?
Answer: The inhibition at 25 ppm was < 80%.

Question: What about the pest or weed control at 100 ppm [2] of the same compound?
Answer: Its pest or weed control at 100 ppm is 25 to 74%.

Question: And the melting point?
Answer: Its melting point is 194 to 196 °C.

Question: And the inhibition at 25 ppm [3]?
Answer: Its inhibition at 25 ppm is < 80%.

Question: What about the pest or weed control at 100 ppm [4, 9] of the same compound?
Answer: Its pest or weed control at 100 ppm is 25 to 74%.

Question: And the pest or weed control at 100 ppm (Erysiphe graminis—ERYSGT; [9])?
Answer: Its pest or weed control at 100 ppm is < 25%.

Question: And the “LEPTNO in vivo 1 Day Protectant” value ([5]; 100 ppm spray, wheat, 24 hour protectant, control of fungal infection vs untreated plants)?
Answer: Its value is “+ +”.

Question: What about the inhibition at 25 ppm ([6]; 25 ppm in growth medium) of the same compound?
Answer: The inhibition at 25 ppm was > 80%.

Question: What about the inhibition at 25 ppm ([7]; 25 ppm in growth medium) of the same compound?
Answer: The inhibition at 25 ppm was > 80%.

Question: What about the pest or weed control at 100 ppm (Septoria tritici—SEPTTR; [9]) of the same compound?
Answer: Its pest or weed control at 100 ppm is 25 to 74%.

Question: And the inhibition at 25 ppm [8]?
Answer: The inhibition at 25 ppm was < 80%.

Question: What about the inhibition at 25 ppm (Ustilago maydis (USTIMA)) of the same compound?
Answer: Its inhibition at 25 ppm is < 80%.

Question: Which inhibition at 25 ppm [1] does the source give for `COc1ccc(CNC(=O)c2ncccc2O)cc1` [Compound 226] here?
Answer: Its inhibition at 25 ppm is < 80%.

Question: And the pest or weed control at 100 ppm [2]?
Answer: The pest or weed control at 100 ppm was < 25%.

Question: And the melting point?
Answer: The melting point was 96 to 97 °C.

Question: And the inhibition at 25 ppm [3]?
Answer: Its inhibition at 25 ppm is > 80%.

Question: What about the pest or weed control at 100 ppm [4, 10] of the same compound?
Answer: Its pest or weed control at 100 ppm is < 25%.

Question: What about the pest or weed control at 100 ppm (Erysiphe graminis—ERYSGT; [10]) of the same compound?
Answer: The pest or weed control at 100 ppm was 25 to 74%.

Question: What about the pest or weed control at 100 ppm [5, 11] of the same compound?
Answer: Its pest or weed control at 100 ppm is < 25%.

Question: What about the inhibition at 25 ppm ([6]; 25 ppm in growth medium) of the same compound?
Answer: Its inhibition at 25 ppm is < 80%.

Question: What about the inhibition at 25 ppm ([7]; 25 ppm in growth medium) of the same compound?
Answer: Its inhibition at 25 ppm is < 80%.

Question: What about the pest or weed control at 100 ppm (Septoria tritici—SEPTTR; [10]) of the same compound?
Answer: Its pest or weed control at 100 ppm is < 25%.

Question: And the inhibition at 25 ppm [8]?
Answer: Its inhibition at 25 ppm is < 80%.

Question: And the inhibition at 25 ppm (Ustilago maydis (USTIMA))?
Answer: The inhibition at 25 ppm was < 80%.

Question: With `CC1(C)CC(NC(=O)c2nnc(O)nc2O)CC(C)(C)C1` [Compound 543] as the compound, how does the inhibition at 25 ppm [1] read?
Answer: Its inhibition at 25 ppm is < 80%.

Question: And the pest or weed control at 100 ppm [2]?
Answer: Its pest or weed control at 100 ppm is < 25%.

Question: What about the melting point of the same compound?
Answer: Its melting point is 283 to 285 °C.

Question: What about the inhibition at 25 ppm [3] of the same compound?
Answer: The inhibition at 25 ppm was < 80%.

Question: And the pest or weed control at 100 ppm [4, 12]?
Answer: Its pest or weed control at 100 ppm is < 25%.

Question: What about the pest or weed control at 100 ppm (Erysiphe graminis—ERYSGT; [12]) of the same compound?
Answer: The pest or weed control at 100 ppm was < 25%.

Question: What about the pest or weed control at 100 ppm [5, 13] of the same compound?
Answer: Its pest or weed control at 100 ppm is 25 to 74%.

Question: And the inhibition at 25 ppm ([6]; 25 ppm in the growth medium)?
Answer: Its inhibition at 25 ppm is < 80%.

Question: What about the inhibition at 25 ppm ([7]; 25 ppm in the growth medium) of the same compound?
Answer: Its inhibition at 25 ppm is < 80%.

Question: What about the pest or weed control at 100 ppm (Septoria tritici—SEPTTR; [12]) of the same compound?
Answer: Its pest or weed control at 100 ppm is < 25%.

Question: And the inhibition at 25 ppm [8]?
Answer: The inhibition at 25 ppm was < 80%.

Question: What about the inhibition at 25 ppm (Ustilago maydis (USTIMA)) of the same compound?
Answer: Its inhibition at 25 ppm is < 80%.

Question: With `COc1ccnc(C(=O)NC2CCN(Cc3ccc(C)cc3)CC2)c1O` [Compound 306] as the compound, how does the inhibition at 25 ppm [1] read?
Answer: The inhibition at 25 ppm was < 80%.

Question: And the pest or weed control at 100 ppm [2]?
Answer: The pest or weed control at 100 ppm was < 25%.

Question: And the melting point?
Answer: The melting point was 150 to 152 °C.

Question: What about the inhibition at 25 ppm [3] of the same compound?
Answer: Its inhibition at 25 ppm is < 80%.

Question: And the pest or weed control at 100 ppm [4, 10]?
Answer: Its pest or weed control at 100 ppm is < 25%.

Question: What about the pest or weed control at 100 ppm (Erysiphe graminis—ERYSGT; [10]) of the same compound?
Answer: Its pest or weed control at 100 ppm is < 25%.

Question: What about the pest or weed control at 100 ppm [5, 11] of the same compound?
Answer: Its pest or weed control at 100 ppm is < 25%.

Question: And the inhibition at 25 ppm ([6]; 25 ppm in growth medium)?
Answer: The inhibition at 25 ppm was < 80%.

Question: And the inhibition at 25 ppm ([7]; 25 ppm in growth medium)?
Answer: The inhibition at 25 ppm was < 80%.

Question: And the pest or weed control at 100 ppm (Septoria tritici—SEPTTR; [10])?
Answer: The pest or weed control at 100 ppm was 25 to 74%.

Question: And the inhibition at 25 ppm [8]?
Answer: Its inhibition at 25 ppm is < 80%.

Question: And the inhibition at 25 ppm (Ustilago maydis (USTIMA))?
Answer: The inhibition at 25 ppm was < 80%.

Question: Which inhibition at 25 ppm [1] does the source give for `COc1ccnc(C(=O)N[C@H]2COC(=O)[C@H](Cc3ccccc3)[C@@H](OC(=O)C(C)C)[C@H](C)OC2=O)c1OC(=O)C1CCC1` [Compound 604] here?
Answer: Its inhibition at 25 ppm is < 80%.

Question: What about the pest or weed control at 100 ppm [2] of the same compound?
Answer: Its pest or weed control at 100 ppm is < 25%.

Question: And the melting point?
Answer: The melting point was 176 to 177 °C.

Question: What about the inhibition at 25 ppm [3] of the same compound?
Answer: Its inhibition at 25 ppm is < 80%.

Question: And the “PUCCRT in vivo 1 Day Protectant” value [4, 14]?
Answer: The value was “+ +”.

Question: What about the “ERYSGT in vivo 1 Day Protectant” value (Erysiphe graminis—ERYSGT; [14]) of the same compound?
Answer: Its value is “+ +”.

Question: And the “LEPTNO in vivo 1 Day Protectant” value [5, 14]?
Answer: The value was “+ +”.

Question: And the inhibition at 25 ppm ([6]; 25 ppm in growth medium)?
Answer: The inhibition at 25 ppm was < 80%.

Question: And the inhibition at 25 ppm ([7]; 25 ppm in growth medium)?
Answer: Its inhibition at 25 ppm is < 80%.

Question: And the “SEPTTR in vivo 1 Day Protectant” value (Septoria tritici—SEPTTR; [14])?
Answer: The value was “+ +”.

Question: And the inhibition at 25 ppm [8]?
Answer: Its inhibition at 25 ppm is < 80%.

Question: And the inhibition at 25 ppm (Ustilago maydis (USTIMA))?
Answer: The inhibition at 25 ppm was < 80%.

Question: What does the source list for `COc1ccnc(C(=O)Nc2ccc(Oc3ccc(C(F)(F)F)cn3)cc2)c1O` [Compound 462]?
Answer: inhibition at 25 ppm [1]: > 80%; pest or weed control at 100 ppm [2]: < 25%; melting point: 141 to 143 °C; inhibition at 25 ppm [3]: < 80%; pest or weed control at 100 ppm [4, 12]: 25 to 74%; pest or weed control at 100 ppm (Erysiphe graminis—ERYSGT; [12]): < 25%; pest or weed control at 100 ppm [5, 13]: 25 to 74%; inhibition at 25 ppm ([6]; 25 ppm in the growth medium): > 80%; inhibition at 25 ppm ([7]; 25 ppm in the growth medium): < 80%; pest or weed control at 100 ppm (Septoria tritici—SEPTTR; [12]): 25 to 74%; inhibition at 25 ppm [8]: < 80%; inhibition at 25 ppm (Ustilago maydis (USTIMA)): < 80%

Question: With `COc1ccccc1CNC(=O)c1ncccc1O` [Compound 224] as the compound, how does the inhibition at 25 ppm [1] read?
Answer: Its inhibition at 25 ppm is > 80%.

Question: What about the pest or weed control at 100 ppm [2] of the same compound?
Answer: The pest or weed control at 100 ppm was < 25%.

Question: What about the melting point of the same compound?
Answer: Its melting point is 75 to 76 °C.

Question: What about the inhibition at 25 ppm [3] of the same compound?
Answer: The inhibition at 25 ppm was < 80%.

Question: And the pest or weed control at 100 ppm [4, 10]?
Answer: The pest or weed control at 100 ppm was < 25%.

Question: What about the pest or weed control at 100 ppm (Erysiphe graminis—ERYSGT; [10]) of the same compound?
Answer: The pest or weed control at 100 ppm was < 25%.

Question: And the pest or weed control at 100 ppm [5, 11]?
Answer: The pest or weed control at 100 ppm was < 25%.

Question: What about the inhibition at 25 ppm ([6]; 25 ppm in growth medium) of the same compound?
Answer: The inhibition at 25 ppm was < 80%.

Question: And the inhibition at 25 ppm ([7]; 25 ppm in growth medium)?
Answer: Its inhibition at 25 ppm is < 80%.

Question: And the pest or weed control at 100 ppm (Septoria tritici—SEPTTR; [10])?
Answer: Its pest or weed control at 100 ppm is < 25%.

Question: And the inhibition at 25 ppm [8]?
Answer: The inhibition at 25 ppm was < 80%.

Question: And the inhibition at 25 ppm (Ustilago maydis (USTIMA))?
Answer: Its inhibition at 25 ppm is < 80%.

Reference: US6706740B2, “Fungicidal heterocyclic aromatic amides and their compositions, methods of use and preparation” (Dow AgroSciences LLC, priority 1999, dated 2004)
